Patent publication US20220289679A1, “HETEROCYCLIC COMPOUND” (Takeda Pharmaceutical Company Limited, priority 2019, published 2022)

Target: T1, human GCS (glucosylceramide synthase) (Homo sapiens, UniProt Q16739)
T1 construct: made in house; host or cells: Expi293F cells (transient expression; microsome fraction)
T1 sequence (Q16739 1-394): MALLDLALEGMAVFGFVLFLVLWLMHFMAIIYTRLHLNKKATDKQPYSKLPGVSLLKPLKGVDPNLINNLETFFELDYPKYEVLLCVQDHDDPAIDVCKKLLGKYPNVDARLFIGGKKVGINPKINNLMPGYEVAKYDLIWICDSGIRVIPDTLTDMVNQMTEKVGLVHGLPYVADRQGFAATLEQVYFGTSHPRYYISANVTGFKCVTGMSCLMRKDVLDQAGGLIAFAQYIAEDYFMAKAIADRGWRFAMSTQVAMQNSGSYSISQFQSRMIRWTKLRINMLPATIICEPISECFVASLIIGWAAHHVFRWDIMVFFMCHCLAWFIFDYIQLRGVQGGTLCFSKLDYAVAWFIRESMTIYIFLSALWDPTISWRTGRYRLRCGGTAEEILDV
Assay: Glucosylceramide Synthase (GCS) Assay
Assay type: biochemical
Conditions: test compound 10 μM, microsome fraction of Expi293F cells expressing human GCS, 1.7 μM UDP-glucose, 3 μM C8 ceramide, room temperature 60 min, C8 glucosylceramide by Rapidfire MS/MS; for inhibition at 10 µM: read-out: GCS enzyme inhibitory rate at 10 μM (%)
Method: In enzyme assay, a microsome fraction obtained by transient expression by Expi293F™ cells (catalog number: A14527, Thermo Fisher Scientific) was used as a glucosylceramide synthase source. Liposomal C8 ceramide and UDP-glucose were used as substrates. For each substrate concentration, 1.7 μM UDP-glucose, which is equal to the Km value, and 3 μM C8 ceramide were used. After the enzymatic reaction, the analysis was performed with Rapidfire MS/MS (API-4000™, SCIEX), and C8 glucosylceramide was quantified to evaluate the inhibitory activity of the test compound against glucosylceramide synthase activity.
PcDNA3.3TOPO vector (catalog number: K830001, Thermo Fisher Scientific) into which the human GCS gene was inserted was introduced into Expi293F™ Cells (catalog number: A14527, Thermo Fisher Scientific) by using ExpiFectamine™ 293 Transfection Kit (catalog number: A14525, Thermo Fisher Scientific). The cultured cells were dissolved in D-PBS (catalog number: 048-29805, Fuji Film Wako Pure Chemical Industries, Ltd.) containing 1 mM PMSF, and the solution was allowed to stand on ice for 30 minutes, and then subjected to cell disruption (homogenized). The disruption solution was centrifuged at 10,000×g for 20 minutes at 4° C., and the obtained supernatant was centrifuged at 142,400×g for 60 minutes at 4° C. The obtained precipitate was resuspended in a D-PBS solution containing 1 mM PMSF, and homogenized again to prepare as a microsome fraction. Protein quantification was performed by the CBB method.
A 1 mM compound solution prepared by dissolving the test compound in DMSO was added to a 384-well plate by 100 nL so that the final concentration of the test compound was 10 μM. Next, a substrate solution consisting of 3.4 μM UDP-glucose and 6 μM C8 ceramide was added by 5 μL, followed by an enzyme solution consisting of a 25 μg/mL microsome fraction by 5 μL. C8 ceramide was prepared from liposomes composed of 15 mol % C8 ceramide and 85 mol % dioleoyl phosphatidylcholine (1,2-dioleoyl-sn-glycero-3-phosphocholine: DOPC). The enzymatic reaction was carried out in a solution consisting of 20 mM tris-hydrochloric acid buffer (pH 7.5), 0.01% Tween 20, 0.01% bovine serum albumin and 1 mM dithiothreitol at room temperature for 60 min. Then, a solution consisting of 75% isopropanol and 1% formic acid containing 0.25 μM N-Octadecanoyl-D35-psichosine (catalog number: 1914, Matreya) as an internal standard substance was added by 60 μL to stop the enzymatic reaction. 5 μL of the centrifugal supernatant of the obtained reaction product was analyzed by Rapidfire MS/MS (Agilent Technologies) using API-4000™ (SCIEX), and the C8 glucosylceramide was quantified to evaluate the inhibitory activity of the test compound against the glucosylceramide synthase activity. The inhibitory activity of the test compound was evaluated when the C8 glucosylceramide level in the enzyme-free solution was considered as 100% inhibitory and the enzyme activity of the DMSO group in the absence of the compound was considered as 0% inhibitory.

| Compound | inhibition at 10 µM [%] | GCS enzyme inhibitory rate at 10 μM (%) |
| --- | --- | --- |
| O=C(Nc1ccn(CC2CC2(F)F)n1)c1cccn(-c2ccc(F)cc2OCC(F)(F)F)c1=O (racemic) [Example 55, rac-N-{1-[(2,2-difluorocyclopropyl)methyl]-1H-pyrazol-3-yl}-1-[4-fluoro-2-(2,2,2-trifluoroethoxy)phenyl]-2-oxo-1,2-dihydropyridine-3-carboxamide] | 88 | – |
| O=C(Nc1ccc(C(O)C2CC2)nc1)c1cccn(-c2ccc(F)cc2OCC(F)(F)F)c1=O (racemic) [Example 75, rac-N-{6-[cyclopropyl(hydroxy)methyl]pyridin-3-yl}-1-[4-fluoro-2-(2,2,2-trifluoroethoxy)phenyl]-2-oxo-1,2-dihydropyridine-3-carboxamide] | 96 | – |
| O=C(Nc1ccc(C(O)C2CC2)nc1)c1cccn(-c2ccccc2OCC(F)(F)F)c1=O (racemic) [Example 76, rac-N-{6-[cyclopropyl(hydroxy)methyl]pyridin-3-yl}-2-oxo-1-[2-(2,2,2-trifluproethoxy)phenyl]-1,2-dihydropyridine-3-carboxamide] | 98 | – |
| CC(O)(c1ccc(NC(=O)c2cccn(-c3ccnnc3OCC(F)(F)F)c2=O)cn1)C(F)(F)F (racemic) [Example 121, rac-2-oxo-1-[3-(2,2,2-trifluoroethoxy)pyridazin-4-yl]-N-[6-(1,1,1-trifluoro-2-hydroxypropan-2-yl)pyridin-3-yl]-1,2-dihydropyridine-3-carboxamide] | 90 | – |
| CC(O)c1ccc(NC(=O)c2ccnn(-c3ccccc3OCC(F)(F)F)c2=O)cc1 (racemic) [Example 138, rac-N-[4-(1-hydroxyethyl)phenyl]-3-oxo-2-[2-(2,2,2-trifluoroethoxy)phenyl]-2,3-dihydropyridazine-4-carboxamide] | 99 | – |
| Cc1cc(C(=O)Nc2ccc(C(C)O)cc2)c(=O)n(-c2ccccc2OCC(F)F)n1 (racemic) [Example 139, rac-2-[2-(2,2-difluoroethoxy)phenyl]-N-[4-(1-hydroxyethyl)phenyl]-6-methyl-3-oxo-2,3-dihydropyridazine-4-carboxamide] | 99 | – |
| CC(O)c1ccc(NC(=O)c2ccnn(-c3ccccc3OCC(F)(F)F)c2=O)nc1 (racemic) [Example 140, rac-N-[5-(1-hydroxyethyl)pyridin-2-yl]-3-oxo-2-[2-(2,2,2-trifluoroethoxy)phenyl]-2,3-dihydropyridazine-4-carboxamide] | 87 | – |
| O=C(Nc1ccc(C2CCCO2)cc1)c1ccnn(-c2ccccc2OCC(F)F)c1=O (racemic) [Example 144, rac-2-[2-(2,2-difluoroethoxy)phenyl]-3-oxo-N-[4-(oxolan-2-yl)phenyl]-2,3-dihydropyridazine-4-carboxamide] | 100 | – |
| O=C(Nc1ccc(C2CCOC2)cc1)c1ccnn(-c2ccccc2OCC(F)F)c1=O (racemic) [Example 145, rac-2-[2-(2,2-difluoroethoxy)phenyl]-3-oxo-N-[4-(oxolan-3-yl)phenyl]-2,3-dihydropyridazine-4-carboxamide] | 99 | – |
| CC(C)(O)c1ccc(NC(=O)c2cn(C3CCOC3)nc(-c3ccccc3OCC(F)F)c2=O)cc1 (racemic) [Example 193, rac-6-[2-(2,2-difluoroethoxy)phenyl]-N-[4-(2-hydroxypropan-2-yl)phenyl]-5-oxo-2-(oxolan-3-yl)-2,5-dihydropyridazine-4-carboxamide] | 99 | – |
| O=C(Nc1ccc(C(O)(C(F)F)C(F)F)nc1)c1cn(C2CCOC2)nc(-c2ccccc2OCC(F)F)c1=O (racemic) [Example 195, rac-6-[2-(2,2-difluoroethoxy)phenyl]-5-oxo-2-(oxolan-3-yl)-N-[6-(1,1,3,3-tetrafluoro-2-hydroxypropan-2-yl)pyridin-3-yl]-2,5-dihydropyridazine-4-carboxamide] | 100 | – |
| O=C(Nc1ccc(C(O)(C(F)F)C(F)F)cc1)c1cn(C2CCOC2)nc(-c2ccccc2OCC(F)F)c1=O (racemic) [Example 196, rac-6-[2-(2,2-difluoroethoxy)phenyl]-5-oxo-2-(oxolan-3-yl)-N-[4-(1,1,3,3-tetrafluoro-2-hydroxypropan-2-yl)phenyl]-2,5-dihydropyridazine-4-carboxamide] | 100 | – |
| CC(O)c1cc(C(=O)Nc2ccc(OC(F)F)cc2)c(=O)n(-c2ccccc2OCC(F)(F)F)n1 (racemic) [Example 199, rac-N-[4-(difluoromethoxy)phenyl]-6-(1-hydroxyethyl)-3-oxo-2-[2-(2,2,2-trifluoroethoxy)phenyl]-2,3-dihydropyridazine-4-carboxamide] | 100 | – |
| O=C(Nc1ccc(C(O)C2CC2)nc1)c1cccn(-c2ccc(F)cc2OCC(F)(F)F)c1=O (single isomer, unassigned) [Example 115, (R or S)-N-{6-[cyclopropyl(hydroxy)methyl]pyridin-3-yl}-1-[4-fluoro-2-(2,2,2-trifluoroethoxy)phenyl]-2-oxo-1,2-dihydropyridine-3-carboxamide] | 86 | – |
| O=C(Nc1ccc(C(O)C2CC2)nc1)c1cccn(-c2ccc(F)cc2OCC(F)(F)F)c1=O (single isomer, unassigned) [Example 116, (R or S)-N-{6-[cyclopropyl(hydroxy)methyl]pyridin-3-yl}-1-[4-fluoro-2-(2,2,2-trifluoroethoxy)phenyl]-2-oxo-1,2-dihydropyridine-3-carboxamide] | – | 97 |
| COc1ccccc1-n1c(C)ccc(C(=O)Nc2ccc(Oc3ccccc3)cc2)c1=O [Example 1, 1-(2-methoxyphenyl)-6-methyl-2-oxo-N-(4-phenoxyphenyl)-1,2-dihydropyridine-3-carboxamide] | 71 | – |
| COc1ccccc1-n1cccc(C(=O)Nc2ccc(Oc3ccccc3)cc2)c1=O [Example 2, 1-(2-methoxyphenyl)-2-oxo-N-(4-phenoxyphenyl)-1,2-dihydropyridine-3-carboxamide] | 95 | – |
| COc1cc(F)ccc1-n1cccc(C(=O)Nc2ccc(Oc3ccccc3)cc2)c1=O [Example 3, 1-(4-fluoro-2-methoxyphenyl)-2-oxo-N-(4-phenoxyphenyl)-1,2-dihydropyridine-3-carboxamide] | 92 | – |
| O=C(Nc1ccc(Oc2ccccc2)cc1)c1cccn(-c2ccccc2N2CCOCC2)c1=O [Example 4, 1-[2-(morpholin-4-yl)phenyl]-2-oxo-N-(4-phenoxyphenyl)-1,2-dihydropyridine-3-carboxamide] | 93 | – |
| COc1cc(F)ccc1-n1cccc(C(=O)Nc2ccc(OCC(F)(F)F)nc2)c1=O [Example 5, 1-(4-fluoro-2-methoxyphenyl)-2-oxo-N-[6-(2,2,2-trifluoroethoxy)pyridin-3-yl]-1,2-dihydropyridine-3-carboxamide] | 68 | – |
| COc1cc(F)ccc1-n1cccc(C(=O)Nc2ccc(OC(F)(F)F)cc2)c1=O [Example 6, 1-(4-fluoro-2-methoxyphenyl)-2-oxo-N-[4-(trifluoromethoxy)phenyl]-1,2-dihydropyridine-3-carboxamide] | 52 | – |
| COc1cc(F)ccc1-n1cccc(C(=O)Nc2ccc(C3CC3)nc2)c1=O [Example 7, N-(6-cyclopropylpyridin-3-yl)-1-(4-fluoro-2-methoxyphenyl)-2-oxo-1,2-dihydropyridine-3-carboxamide] | 57 | – |
